Data from patent US20240002339A1, “THERAPEUTIC COMPOUNDS AND METHODS” (Regents of the University of Minnesota, priority 2022, published 2024).
pIC50, pKd: −log10 of the molar value.

Tests used:
CDK2 [1] = target: T1, CDK2 (Homo sapiens (Human), UniProt P24941); experiment: Isothermal titration calorimetry (ITC); type: binding
CDK2 [2] = target: T1, CDK2; experiment: p-Cl-ANS displacement assay (fluorescent binding assay)
CDK2/cyclin A = CDK2/cyclin A (Homo sapiens (Human), UniProt P24941); experiment: ADP-Glo enzymatic activity assay; type: biochemical
GST-tagged CDK2 = GST-tagged CDK2 (Homo sapiens (Human), UniProt P24941); experiment: Surface plasmon resonance (SPR); type: binding; conditions: read-out: SPR Kd (SSA)

Compound	pKd (CDK2 [1])	pIC50 (CDK2 [2])	also measured
O=C(O)c1cc2c(cc1NCCc1c[nH]c3ccccc13)OCCO2 [Example 73, 7-((2-(1H-Indol-3-yl)ethyl)amino)-2,3-dihydrobenzo[b][1,4]dioxine-6-carboxylic acid]	4.52		
Cc1[nH]c2cc(F)ccc2c1CC(C)Nc1ccc(C(F)(F)F)cc1C(=O)O (stereo not shown) [Example 47]		6.77	
O=C(O)c1cc(C(F)(F)F)ccc1NCCc1c[nH]c2ccc([N+](=O)[O-])cc12 [Example 28]		6.18	
O=C(O)c1cc(SC(F)(F)F)ccc1NCCc1c(CO)[nH]c2cc(Br)ccc12 [Example 65, 2-((2-(6-Bromo-2-(hydroxymethyl)-1H-indol-3-yl)ethyl)amino)-5-((trifluoromethyl)thio)benzoic acid]		6.47	
O=C(O)c1cc([N+](=O)[O-])ccc1NCCc1c[nH]c2c(F)cccc12 [Example 20]		5.22	
Cc1cc(C(=O)O)c(NCCc2c[nH]c3ccccc23)cc1Cl [Example 70, 2-((2-(1H-Indol-3-yl)ethyl)amino)-4-chloro-5-methylbenzoic acid]	5.20	4.96	
N#Cc1ccc2[nH]cc(CCNc3ccc(C(F)(F)F)cc3C(=O)O)c2c1 [Example 29]		5.21	
Cc1[nH]c2c(Cl)c(Cl)ccc2c1CCNc1ccc(C(F)(F)F)cc1C(=O)O [Example 45]		5.80	
O=C(O)c1cc([N+](=O)[O-])ccc1NCCc1c(C(=O)O)[nH]c2ccccc12 [Example 93, 3-(2-((2-Carboxy-4-nitrophenyl)amino)ethyl)-1H-indole-2-carboxylic acid]		4.80	
Cc1cc(NCCc2c[nH]c3ccccc23)c(C(=O)O)cc1[N+](=O)[O-] [Example 6]	5.24	5.38	
CC(C)(C)c1ccc(NCCc2c[nH]c3ccccc23)c(C(=O)O)c1 [Example 80, 2-((2-(1H-Indol-3-yl)ethyl)amino)-5-(tert-butyl)benzoic acid]	< 4.00	4.68	
O=C(O)c1cc(C(F)(F)F)ccc1NCCc1c[nH]c2cc(O)ccc12 [Example 95, 2-((2-(6-Hydroxy-1H-indol-3-yl)ethyl)amino)-5-(trifluoromethyl)benzoic acid]		4.04	
O=C(O)c1cc([N+](=O)[O-])ccc1NCCc1c[nH]c2cc(OC(F)(F)F)ccc12 [Example 25]		6.03	
O=C(O)c1cc(C(F)(F)F)ccc1SCCc1c[nH]c2ccccc12 [Example 46]		6.00	
O=C(O)c1cc(F)c(F)cc1NCCc1c[nH]c2ccccc12 [Example 41]		5.62	
O=C(O)c1c(NCCc2c[nH]c3ccccc23)cccc1[N+](=O)[O-] [Example 88, 2-((2-(1H-Indol-3-yl)ethyl)amino)-6-nitrobenzoic acid]	4.10	4.03	
COc1ccc2c(CCNc3ccc([N+](=O)[O-])cc3C(=O)O)c[nH]c2c1 [Example 23]		5.82	
O=Cc1ccc(NCCc2c[nH]c3ccccc23)c(C(=O)O)c1 [Example 91, 2-((2-(1H-Indol-3-yl)ethyl)amino)-5-formylbenzoic acid]		4.44	
N#Cc1ccc2c(CCNc3ccc(SC(F)(F)F)cc3C(=O)O)c[nH]c2c1 [Example 67, 2-((2-(6-Cyano-1H-indol-3-yl)ethyl)amino)-5-((trifluoromethyl)thio)benzoic acid]		> 7.00	
O=C(O)c1cc(C(F)(F)F)ccc1NCCc1c(CO)[nH]c2ccccc12 [Example 27]		6.20	
COc1cc(NCCc2c[nH]c3ccccc23)c(C(=O)O)cc1OC [Example 71, 2-((2-(1H-Indol-3-yl)ethyl)amino)-4,5-dimethoxybenzoic acid]	5.00		
O=C(O)c1cc([N+](=O)[O-])ccc1NCCc1c[nH]c2ccc(F)cc12 [Example 19]		5.60	
O=C(O)c1c(O)cccc1NCCc1c[nH]c2ccccc12 [Example 8]	5.23	4.70	
CCCc1ccc(NCCc2c[nH]c3ccccc23)c(C(=O)O)c1 [Example 81, 2-((2-(1H-Indol-3-yl)ethyl)amino)-5-propylbenzoic acid]	5.19	5.25	
O=C(O)c1c(NCCc2c[nH]c3ccccc23)cccc1C(F)(F)F [Example 89, 2-((2-(1H-Indol-3-yl)ethyl)amino)-6-(trifluoromethyl)benzoic acid]		3.92	

Compound	pKd (CDK2 [1])	pIC50 (CDK2 [2])	also measured
N#Cc1cccc(NCCc2c[nH]c3ccccc23)c1C(=O)O [Example 90, 2-((2-(1H-Indol-3-yl)ethyl)amino)-6-cyanobenzoic acid]		4.43	
CCSc1ccc(NCCc2c[nH]c3ccccc23)c(C(=O)O)c1 [Example 85, 2-((2-(1H-Indol-3-yl)ethyl)amino)-5-(ethylthio)benzoic acid]	5.04		
O=C(O)c1cc([N+](=O)[O-])ccc1NCCc1c[nH]c2cccc(F)c12 [Example 17]		5.68	
O=C(O)c1cc(C(F)(F)F)ccc1NCCc1c[nH]c2cccc(O)c12 [Example 94, 2-((2-(4-Hydroxy-1H-indol-3-yl)ethyl)amino)-5-(trifluoromethyl)benzoic acid]		4.29	
O=C(O)c1cc2ccccc2cc1NCCc1c[nH]c2ccccc12 [Example 43]		5.57	
CCc1ccc(NCCc2c[nH]c3ccccc23)c(C(=O)O)c1 [Example 77, 2-((2-(1H-Indol-3-yl)ethyl)amino)-5-ethylbenzoic acid]	4.66	4.74	
Cc1ccc(NCCc2c[nH]c3ccccc23)c(C(=O)O)c1 [Example 76, 2-((2-(1H-Indol-3-yl)ethyl)amino)-5-methylbenzoic acid]	4.44		
CCOc1cc(NCCc2c[nH]c3cc(C#N)ccc23)c(C(=O)O)cc1OCC [Example 62, 2-((2-(6-Cyano-1H-indol-3-yl)ethyl)amino)-4,5-diethoxybenzoic acid]		6.11	
Cc1c([N+](=O)[O-])ccc(NCCc2c[nH]c3ccccc23)c1C(=O)O [Example 68, 6-((2-(1H-Indol-3-yl)ethyl)amino)-2-methyl-3-nitrobenzoic]		5.31	
O=C(O)c1cc(OC(F)(F)F)ccc1NCCc1c[nH]c2cc(F)ccc12 [Example 48]		6.74	
O=C(O)c1cc(SC(F)(F)F)ccc1NCCc1c[nH]c2ccccc12 [Example 40]		6.82	
O=C(O)c1cc(-c2ccccc2)ccc1NCCc1c[nH]c2ccccc12 [Example 79, 4-((2-(1H-Indol-3-yl)ethyl)amino)-[1,1′-biphenyl]-3-carboxylic acid]	< 4.00	4.96	
O=C(O)c1cc2c(cc1NCCc1c[nH]c3ccccc13)CCCC2 [Example 42]		5.17	
O=C(O)c1cc(C(F)(F)F)ccc1NCCc1c[nH]c2cc(Cl)ccc12 [Example 35]	7.51	7.04	pIC50 (CDK2/cyclin A): 7.06; pKd (GST-tagged CDK2): 7.62
FC(F)(F)c1ccc(NCCc2c[nH]c3ccccc23)c(-c2nnn[nH]2)c1 [Example 33]		5.18	
COc1cc(NCCc2c[nH]c3ccccc23)c(C(=O)O)cc1Br [Example 69, 2-((2-(1H-Indol-3-yl)ethyl)amino)-5-bromo-4-methoxybenzoic acid]		4.55	
O=C(O)c1cc(SC(F)(F)F)ccc1NCCc1c[nH]c2cc(Br)ccc12 [Example 66, 2-((2-(6-Bromo-1H-indol-3-yl)ethyl)amino)-5-((trifluoromethyl)thio)benzoic acid]		6.77	
O=C(O)c1cc(C(F)(F)F)ccc1NCCc1c[nH]c2cc(F)ccc12 [Example 34]	6.68	6.77	
O=C(O)c1cc(C(F)(F)F)ccc1NCCc1c[nH]c2c(O)cccc12 [Example 31]		5.47	
FC(F)(F)c1ccc(NCCc2c[nH]c3cc(Br)ccc23)c(-c2nnn[nH]2)c1 [Example 37]		6.20	
O=C(O)c1cc(SC(F)(F)F)ccc1NCCc1c(CO)[nH]c2ccccc12 [Example 64, 2-((2-(2-(Hydroxymethyl)-1H-indol-3-yl)ethyl)amino)-5-((trifluoromethyl)thio)benzoic acid]		5.42	
O=C(O)c1c(NCCc2c[nH]c3ccccc23)ccc([N+](=O)[O-])c1O [Example 9]	6.44	6.18	
Nc1c([N+](=O)[O-])ccc(NCCc2c[nH]c3ccccc23)c1C(=O)O [Example 7]	5.36	5.39	
O=C(O)c1cc(OC(F)(F)F)ccc1NCCc1c[nH]c2cc(Br)ccc12 [Example 63, 2-((2-(6-Bromo-1H-indol-3-yl)ethyl)amino)-5-(trifluoromethoxy)benzoic acid]		> 7.00	
Cc1[nH]c2cc(Cl)cc(Cl)c2c1CCNc1ccc(C(F)(F)F)cc1C(=O)O [Example 44]		6.03	
